According to patent EP4631940A1, “COMPOUND TARGETING PAN-KRAS PROTEIN DEGRADATION AGENT AND USE THEREOF” (Betta Pharmaceuticals Co., Ltd., priority 2022, dated 2024):

How the values were obtained:
AGS = assay: Cell proliferation experiment (CellTiter-Glo); format: cell-based; settings: Homo sapiens, AGS, 96 h, read-out: IC50(nM) AGS
SW620 = assay: Cell proliferation experiment (CellTiter-Glo); format: cell-based; settings: Homo sapiens, SW-620, 96 h, read-out: IC50(nM) SW620
KRAS G12D [1] = biological target: T1, KRAS G12D (Homo sapiens, UniProt P01116, G12D); assay: cell-based; settings: AGS
T1 sequence (P01116 1-188 isoform P01116-2 G12D): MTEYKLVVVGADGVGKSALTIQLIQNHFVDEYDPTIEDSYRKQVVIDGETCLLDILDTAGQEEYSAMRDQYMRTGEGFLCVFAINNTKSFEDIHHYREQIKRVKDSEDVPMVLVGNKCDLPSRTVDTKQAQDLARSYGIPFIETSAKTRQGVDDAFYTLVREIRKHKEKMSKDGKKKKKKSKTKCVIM

KRAS G12D [2] = biological target: T1, KRAS G12D

SMILES	IC50 (AGS)	IC50 (SW620)	Dmax (KRAS G12D [1])	DC50 (KRAS G12D [2])
CCc1c(F)ccc2cc(O)cc(-c3ncc4c(N5CCC[C@@](C)(O)C5)nc(OCCN5CCC(COc6ccc(-c7cn([C@H](C(=O)N8C[C@H](O)C[C@H]8C(=O)N[C@@H](C)c8ccc(-c9scnc9C)cc8)C(C)C)nn7)cc6)CC5)nc4c3F)c12 [Compound 67]	40 nM	1720 nM	78%	22 nM
CCc1c(F)ccc2cc(O)cc(-c3ncc4c(N5CCC[C@@](C)(O)C5)nc(OCC5(CN6C[C@@H]7CN(c8cc([C@H](C(=O)N9C[C@H](O)C[C@H]9C(=O)N[C@@H](C)c9ccc(-c%10scnc%10C)cc9)C(C)C)on8)C[C@@H]7C6)CC5)nc4c3F)c12 [Compound 113]	8.3 nM	49 nM	95%	9.3 nM
C=C1CN2[C@H](COC(=O)N3CCC4(CC3)CC(CNC(=O)C[C@H](NC(=O)[C@@H]3C[C@@H](O)CN3C(=O)C(c3cc(C)no3)C(C)C)c3ccc(-c5scnc5C)cc3)C4)CC[C@@]2(COc2nc(N3CCC[C@@](C)(O)C3)c3cnc(-c4cc(O)cc5ccc(F)c(CC)c45)c(F)c3n2)C1 (single isomer, unassigned) [Compound 139]	84 nM	2040 nM	95%	31 nM
CCc1c(F)ccc2cc(O)cc(-c3ncc4c(N5CCC[C@@](C)(O)C5)nc(OCC5(CN6CCC7(CC6)CC(Oc6cc([C@H](C(=O)N8C[C@H](O)C[C@H]8C(=O)N[C@@H](C)c8ccc(-c9scnc9C)cc8)C(C)C)on6)C7)CC5)nc4c3F)c12 [Compound 150]	11 nM	–	95%	14 nM
CCc1c(F)ccc2cc(O)cc(-c3ncc4c(N5CCC[C@@](C)(O)C5)nc(OC[C@]56CCCN5[C@@H](COc5ncc(-c7cn([C@H](C(=O)N8C[C@H](O)C[C@H]8C(=O)N[C@@H](C)c8ccc(-c9scnc9C)cc8)C(C)C)nn7)cn5)CC6)nc4c3F)c12 [Compound 158, (2S,4R)-1-((S)-2-(4-(2-(((3R,7aR)-7a-(((7-(8-ethyl-7-fluoro-3-hydroxynaphthalen-1-yl)-8-fluoro-4-((R)-3-hydroxy-3-methylpiperidin-1-yl)pyrido[4,3-d]pyrimidin-2-yl)oxy)methyl)cyclopropyl)hexahydro-1H-pyrrolizin-3-yl)methoxy)pyrimidin-5-yl)-1H-1,2,3-triazol-1-yl)-3-methylbutanoyl)-4-hydroxy-N-(((S)-1-(4-(4-methylthiazol-5-yl)phenyl)ethyl)pyrrolidine-2-carboxamide]	18 nM	–	95%	4.1 nM
CCc1c(F)ccc2cc(O)cc(-c3ncc4c(N5CCC[C@@](C)(O)C5)nc(OCC5(CN6CCC(Nc7ccc(-c8cn([C@H](C(=O)N9C[C@H](O)C[C@H]9C(=O)N[C@@H](C)c9ccc(-c%10scnc%10C)cc9)C(C)C)nn8)cn7)CC6)CC5)nc4c3F)c12 [Compound 152]	30 nM	–	95%	27 nM
CCc1c(F)ccc2cc(O)cc(-c3ncc4c(N5CCC[C@@](C)(O)C5)nc(OCC5(CN6CCC(CN7CCN(c8cc([C@H](C(=O)N9C[C@H](O)C[C@H]9C(=O)N[C@@H](C)c9ccc(-c%10scnc%10C)cc9)C(C)C)on8)CC7)CC6)CC5)nc4c3F)c12 [Compound 104]	39 nM	–	95%	27 nM
CCc1c(F)ccc2cc(O)cc(-c3ncc4c(N5CCC[C@@](C)(O)C5)nc(OCC5(CN6CCN(c7cc([C@H](C(=O)N8C[C@H](O)C[C@H]8C(=O)N[C@@H](C)c8ccc(-c9scnc9C)cc8)C(C)C)on7)CC6)CC5)nc4c3F)c12 [Compound 112]	57 nM	–	95%	5 nM
CCc1c(F)ccc2cc(O)cc(-c3ncc4c(N5CCC[C@@](C)(O)C5)nc(OCC5(CN6CCN(CC78CC(c9cn([C@H](C(=O)N%10C[C@H](O)C[C@H]%10C(=O)N[C@@H](C)c%10ccc(-c%11scnc%11C)cc%10)C(C)C)nn9)(C7)C8)CC6)CC5)nc4c3F)c12 [Compound 148]	15 nM	–	95%	13 nM
